# In the Kinase Knowledgebase extract (Sharma et al. 2016):
# Target: CDK2 (UniProt P24941)
# Assay: Enzyme Assay
row,Ki,SMILES
1,< 1 µM,c1ccc2c(Nc3cc(C4CC4)n[nH]3)nc(Nc3ccc4ncsc4c3)nc2c1
2,< 1 µM,CC(=O)Nc1ccc(Sc2nc(Nc3cc(C4CC4)n[nH]3)c3ccccc3n2)cc1
3,< 1 µM,OCCc1ccc(Nc2nc(Nc3cc(C4CC4)n[nH]3)c3ccccc3n2)cc1
4,< 1 µM,Cc1cc(Nc2nc(Nc3ccc4ncsc4c3)nc3ccccc23)[nH]n1
5,< 1 µM,Cc1cc(Nc2nc(Nc3ccc(CC#N)cc3)nc3ccccc23)[nH]n1
6,< 1 µM,CCc1ccc(Nc2nc(Nc3cc(C4CC4)n[nH]3)c3ccccc3n2)cc1
7,< 1 µM,N#CCc1ccc(Nc2nc(Nc3cc(C4CC4)n[nH]3)cc(-c3ccccc3)n2)cc1

# Second part, the compound before the results:
row,SMILES,Ki
1,CC(=O)Nc1ccc(Sc2nc(Nc3cc(C)n[nH]3)c3ccccc3n2)cc1,1 to 20 µM
2,CCCS(=O)(=O)Nc1ccc(Sc2nc(Nc3cc(C)n[nH]3)c3ccccc3n2)cc1,1 to 20 µM
3,COc1cccc2c(Nc3cc(C)n[nH]3)nc(Sc3ccc(NC(C)=O)cc3)nc12,1 to 20 µM
4,CC(=O)Nc1ccc(Sc2nc(Nc3cc(C)n[nH]3)c3cccc(O)c3n2)cc1,1 to 20 µM
5,Cc1cccc(Sc2nc(Nc3cc(C)n[nH]3)c3ccccc3n2)c1,< 1 µM
6,COc1ccc2c(Nc3cc(C)n[nH]3)nc(Sc3ccc(NC(C)=O)cc3)nc2c1,1 to 20 µM
